Measurements reported in PubChem BioAssay (NCI).
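Five compound concentrations were applied to cells in 96-well plates for 48 hours; endpoints were derived by simple linear interpolation of the resulting dose-response curve. The concentration for 50% growth inhibition is given as GI50. TGI is the concentration that stops growth completely.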

Assays:
Assay in all cases: DTP human tumour cell line panel, 48 h
UACC-257 melanoma = system: UACC-257 melanoma
OVCAR-5 ovarian = system: OVCAR-5 ovarian
U251 CNS = system: U251 CNS
CAKI-1 renal = system: CAKI-1 renal
SF-268 CNS = system: SF-268 CNS
A549 NSCLC = system: A549 NSCLC
HCT-116 colon = system: HCT-116 colon
K-562 leukemia = system: K-562 leukemia
SNB-75 CNS = system: SNB-75 CNS
HCC-2998 colon = system: HCC-2998 colon

SMILES	GI50 (UACC-257 melanoma)	TGI (UACC-257 melanoma)	GI50 (OVCAR-5 ovarian)	TGI (OVCAR-5 ovarian)	GI50 (U251 CNS)	TGI (U251 CNS)	GI50 (CAKI-1 renal)	TGI (CAKI-1 renal)	GI50 (SF-268 CNS)	TGI (SF-268 CNS)	GI50 (A549 NSCLC)	TGI (A549 NSCLC)	GI50 (HCT-116 colon)	TGI (HCT-116 colon)	GI50 (K-562 leukemia)	TGI (K-562 leukemia)	GI50 (SNB-75 CNS)	TGI (SNB-75 CNS)	GI50 (HCC-2998 colon)	TGI (HCC-2998 colon)
CCN1C(=O)CCCc2c1ccc(Nc1ncc(Cl)c(NC3[C@@H](C(N)=O)[C@@H]4C=C[C@H]3C4)n1)c2OC (stereo partly specified)	0.839 µM	4.34 µM	1.34 µM	> 22.2 µM	1.12 µM	13.9 µM	0.919 µM	4.48 µM	2.01 µM	14.3 µM	0.741 µM	5.88 µM	0.805 µM	7.43 µM	2.16 µM	> 74.6 µM	0.619 µM	6.23 µM	1.69 µM	3.57 µM
Cn1nc(-c2ccc(Cl)cc2)nc2c(=O)n(C)c(=O)nc1-2	0.794 µM	1.54 µM	0.949 µM	1.77 µM	0.789 µM	2.62 µM	1.87 µM	6.61 µM	1.8 µM	6.58 µM	0.768 µM	1.73 µM	0.32 µM	1.44 µM	1.17 µM	3.22 µM	2.38 µM	4.68 µM	1.18 µM	3.83 µM
CN(C)C(=Nc1nc(=[N+](C)C)ss1)N(C)C		> 100 µM		> 100 µM		> 100 µM		> 100 µM		> 100 µM		> 100 µM				> 100 µM		> 100 µM		> 100 µM
CN=C(NC(=S)N(C)C)N(C)C		> 100 µM		> 100 µM		> 100 µM		> 100 µM		> 100 µM		> 100 µM		> 100 µM		> 100 µM		> 100 µM		> 100 µM
CCCCCCCCCCCCCCCCNCCCN(C)CCCN		40.4 µM		31.7 µM		31.8 µM		35.8 µM		34.9 µM		32.1 µM		38 µM		49.5 µM		34.2 µM		33.4 µM
CCOC(=O)c1c(C)n(Cc2ccccc2)c2c1cc(O)c1[nH]c(Cc3ccccc3)nc12	16.2 µM	> 70.2 µM	> 22.7 µM	> 61 µM	7.46 µM	33 µM	7.77 µM	21.8 µM	13.8 µM	> 100 µM	12.4 µM	65.7 µM	5.91 µM	> 43.5 µM	0.679 µM	> 40 µM	8.04 µM	42.3 µM		2.04 µM
COc1cc(OC)c2nccc(NCCCN(C)C)c2c1[N+](=O)[O-]		> 100 µM		> 100 µM		> 100 µM		> 100 µM		> 100 µM		> 100 µM		> 100 µM		> 100 µM		> 100 µM		> 100 µM
CCC(c1ccc(OC)cc1)C(CC)c1ccc(O)c(CN2CCN(C)CC2)c1 (stereo unspecified)	2.1 µM	4.97 µM	14.7 µM	29.3 µM	2.73 µM	12.2 µM	2.61 µM	10.6 µM	7.66 µM	21.5 µM	8.26 µM	22.8 µM	3.46 µM	14.5 µM	2.71 µM	14.8 µM	10 µM	23 µM	2.15 µM	4.62 µM
Cc1cc2cc3ccc(N(C)C)cc3nc2cc1N	1.12 µM	3.04 µM	1.26 µM	6.55 µM	0.312 µM	1.61 µM	0.321 µM	1.35 µM	0.611 µM	2.32 µM	0.431 µM	2.61 µM	0.279 µM	1.45 µM	0.418 µM	> 21 µM	1.04 µM	2.3 µM	0.33 µM	1.34 µM
COc1cccc(/C=N/NC(=S)NC2CC3CCC2C3)c1O (stereo unspecified)	15.1 µM	38.7 µM	44.9 µM	> 100 µM	7.57 µM	26.7 µM	3.33 µM	15.9 µM	5.84 µM	21.5 µM	4 µM	15.9 µM	4.01 µM	15.8 µM	7.62 µM	> 100 µM	1.58 µM	5.47 µM	80.4 µM	> 100 µM
Oc1ccc(-c2nc3ccc4[nH]ncc4c3c3c2CCCC3)c(F)c1	1.84 µM	5.34 µM	4.41 µM	17.6 µM	1.45 µM	6.36 µM	2.69 µM	9.73 µM	3.27 µM	14.7 µM	1.17 µM	6.11 µM	0.739 µM	11 µM	2.71 µM	21 µM	2.02 µM	7.05 µM	4.25 µM	14.5 µM
O=C1C2=C(c3ccccc31)C(c1ccccc1)N1C(=O)CSC1=N2 (stereo unspecified)		> 100 µM		> 100 µM		> 100 µM		> 100 µM		> 100 µM		> 100 µM		> 100 µM		> 100 µM		67.7 µM		> 100 µM
Cc1ccc(NC(=O)C2C(=O)N(c3ccc(C)c(C)c3)C(=O)/C2=N\NC(N)=O)cc1C (stereo unspecified)		> 100 µM		> 100 µM		> 100 µM		> 100 µM		> 100 µM		> 100 µM		> 100 µM		> 100 µM		> 100 µM		> 100 µM
CC1=CC(=O)C(C(C)C)=CC1=Nc1cc(Br)c(O)c(Br)c1	14.7 µM	33.1 µM	11.8 µM	30.3 µM	4.72 µM	19.1 µM	2.46 µM	8.02 µM	4.49 µM	17.2 µM	4.98 µM	> 100 µM	3.39 µM	11.6 µM	3.92 µM	13.4 µM	4.22 µM	21.6 µM	3.56 µM	13 µM
CCC/C=C1\CCC(CN(C)C)C1=O (stereo unspecified)		30.8 µM		35.6 µM		15.6 µM		4.59 µM		19.8 µM		> 62.2 µM		23.1 µM				32.9 µM		29.5 µM
Cn1c(=O)c(NC(=O)C(Cl)(Cl)Cl)nc2ccccc21		> 100 µM				> 100 µM		> 100 µM		> 100 µM		> 100 µM		> 100 µM		> 100 µM		> 100 µM		> 100 µM
